The numbers were not newly measured in patent US5872104A, “Combinations and methods for reducing antimicrobial resistance” (Oridigm Corporation, priority 1994, dated 1999), which cites them from elsewhere.

One data set relates to bovine liver SAHH. The note with it: 0.2 mM; cited from earlier work.
The test system of a further data set is SAHH hydrolase. The note with it: cited from earlier work.
Data set [1] has as its system 28S rRNA, 18S rRNA and tRNA. The note with it: NPA 10 μM; c^3 -NPA 10 μM; c^3 -Ari 100 μM; cited from earlier work.
The subject of another data set is tRNA methylases. The note with it: cited from earlier work.
For data set [2], the system named is tRNA methylases isolated from E. coli. The following applies: cited from earlier work.
A further data set concerns RNA methylation. The following applies: cited from earlier work.
Data set [3] has as its system E. coli glutathione synthetase. The note with it: cited from earlier work.
The next data set deals with glutathione. The following applies: ip.; 4.5 mmol/kg buthionine sulfoximine and […] diethyl maleate; cited from earlier work.
For another data set, the system named is arginine decarboxylase. The note with it: cited from earlier work.
Data set [4] deals with S-Adenosylmethionine Decarboxylase (SAM-DC). The note with it: cited from earlier work.
The test system of another data set is Dictyostelium discoideum. The note with it: 5 mM, four hours; cited from earlier work.
In data set [5] the test system is RNA synthesis in Hela cells. The note with it: cited from earlier work.
Data set [6] addresses ornithine decarboxylase (ODC). The note with it: cited from earlier work.
For a further data set, the system named is SAH in hepatocytes. The following applies: cited from earlier work.
Data set [7] has as its system mature rRNA in Novikoff hepatoma cells. The following applies: cited from earlier work.
In the next data set the test system is Trypanosomiasis. The note with it: cited from earlier work.
The subject of the next data set is adenosine deaminase. The following applies: cited from earlier work.
In the next data set the test system is lysosomal ADA. The following applies: 0.2 mM; cited from earlier work.
The next data set relates to SAM synthetase. The note with it: cited from earlier work.
Another data set has as its system Staphylococcus aureus. The note with it: cited from earlier work.
For a further data set, the system named is Ureaplasma urealyticum. The note with it: cited from earlier work.
A further data set deals with Mycoplasma pneumoniae. The following applies: cited from earlier work.
The next data set has as its system Mycoplasma hominis. The note with it: cited from earlier work.
Data set [8] concerns methylation reactions in peripheral blood monocytes. The note with it: cited from earlier work.
The subject of a further data set is rRNA of S. cerevisiae. The note with it: cited from earlier work.

Converted amounts (≈) assume the structure as drawn. Structures can show the parent of a compound that is named as a salt. Where two headings read alike, the source gives them in different places.

Turning to `Nc1nccc2c1ncn2[C@@H]1C[C@H](CO)[C@@H](O)[C@H]1O` [c^3 -Ari, 3-deazaaristeromycin], in the data set on bovine liver SAHH, the inhibition was 97%. For the same compound, the “antiviral activity and cytotoxicity vs first generation” value in the data set with SAHH hydrolase is “retained antiviral activity and considerably lower cytotoxicity than their parent first generation inhibitors”. The “methylation of 28S rRNA, 18S rRNA and tRNA” value in [1] was “inhibit the methylation of 28S rRNA, 18S rRNA and tRNA”.

Take `Nc1ncnc2nc[nH]c12` [adenine]: the “inhibition of tRNA methylases” value with tRNA methylases is listed as “gave inhibition that would be acceptable”. For the same compound, in data set [2], the “inhibition of E. coli tRNA methylases” value is given as “inhibitory to tRNA methylases isolated from E. coli”.

For `Nc1ncnc2c1ncn2[C@@H]1O[C@H](CO)[C@H](O)[C@H]1O` [xylosyladenine, 9-B-D-xylofuranosyladenine], in the data set on RNA methylation, the DNA methylation result is given as “not inhibited”; the “formation of methyluridine, 2'-O-methylcytidine, 5-methyluridine and 5-methylcytidine in RNA” value is “reduced”; the “inhibition of RNA methylation” value was “marked inhibition of RNA methylation”.

On to `COc1cc(Cc2cnc(N)nc2N)cc(OC)c1OC` [trimethoprim], for which, in data set [3], the inhibition entry is listed as “potently inhibited”.

As for `CCOC(=O)/C=C\C(=O)OCC` [diethyl maleate], the depletion of glutathione result with glutathione was “depleted liver and aortic glutathione”.

On to `N=C(N)NCCCC(N)(C(=O)O)C(F)F` (racemic) [DFMA, difluoromethylarginine], for which the arginine decarboxylase inhibition result in the data set on arginine decarboxylase was “irreversible inhibitor of ADC”; with arginine decarboxylase (listed as DL-α-(difluoromethyl)arginine) it was “potent and irreversible inhibitor of bacterial ADC”.

For the compound `CN(C/C=C\CN)C[C@H]1O[C@@H](n2cnc3c(N)ncnc32)[C@H](O)[C@@H]1O` [AbeAdo, 5'-{[(Z)-4-amino-2-butenyl]methylamino}-5'-deoxyadenosine], the SAM-DC inhibition result in [4] is listed as “powerful irreversible inhibitors of SAM-DC”.

Regarding `NCC(O)CN` [1,3-diaminopropan-2-ol], the “growth of D. discoideum” value in the data set on Dictyostelium discoideum is “arrested in four hours”.

Turning to `Nc1ncnc2c1ncn2[C@@H]1O[C@H](CO)C[C@H]1O` [Cordycepin, 3'-deoxyadenosine], in [5] (200 μg/ml), the RNA synthesis result is listed as “totally inhibits RNA synthesis”. In data set [5], the “DNA and protein synthesis” value is “not affected”; the “synthesis of mature rRNA, ribosomal precursor 45S RNA and tRNA” value is “inhibits the synthesis of mature rRNA, ribosomal precursor 45S RNA and tRNA”. In data set [5] (lower concentrations), the “rRNA and tRNA syntheses” value was “selectively inhibited”.

Turning to `CN(CCCNN)C[C@H]1O[C@@H](n2cnc3c(N)ncnc32)[C@H](O)[C@@H]1O` [MHZPA, 5'-deoxy-5'-[(3-hydrazinopropyl)methylamino]adenosine], the SAM-DC inhibition entry in data set [4] was “powerful irreversible inhibitors of SAM-DC”.

Consider `COC(=O)C(N)(C=CCN)CF` (racemic) [DL-α-monofluoromethyldehydroornithine methylester], for which the Ki in [6] is 3000 nM.

`Nc1ncnc2c1ncn2C[C@H](O)[C@@H](O)C(=O)O` [L-threo-eritadenine]: the “inactivation of SAH” value in the data set with SAH in hepatocytes was “inactivate SAH in hepatocytes”.

In the case of `Nc1nc2c(ncn2[C@@H]2O[C@H](CO)[C@@H](O)[C@H]2O)c(=S)[nH]1` [6-thioguanosine], the “formation of mature rRNA” value in data set [7] was “inhibit the formation of mature 28S and 18”.

In the case of `NCCCC(N)(C(=O)O)C(F)F` (centres unmarked) [DFMO, difluoromethylornithine], in the data set with Trypanosomiasis (different dosage levels and modes of treatment), the clinical effectiveness entry is listed as “effective against Trypanosomiasis”. In addition, in the data set with Trypanosomiasis (human, in vivo), the safety result is “safe and well tolerated and the side effects are reversible”. Further, the ODC inhibition result in [6] is “irreversible inhibitor of ornithine decarboxylase”.

As to `Nc1ncnc2c1nnn2[C@@H]1C[C@H](CO)[C@@H](O)[C@H]1O` [8-azaaristeromycin], the inhibition in the data set with bovine liver SAHH is 46%.

As for `CCCCCC[C@H]([C@H](C)O)n1cnc2c(N)ncnc21` (relative stereo) [erythro-9-(2-hydroxy-3-nonyl)adenine], the ADA inhibition result in the data set on adenosine deaminase is on record as “inhibitors of ADA”. Besides, the “inhibition of lysosomal ADA” value in the data set on lysosomal ADA was more than 97%.

`Nc1ncnc2c1ncn2C[C@@H](O)[C@@H](O)C(=O)O` [D-eritadine]: the “inactivation of SAH” value in the data set with SAH in hepatocytes was “inactivate SAH in hepatocytes”.

With `Nc1ncnc2c1ncn2[C@@H]1O[C@H](COP(=O)(O)NP(=O)(O)OP(=O)(O)O)[C@@H](O)[C@H]1O` [AMPNPP], in the data set on SAM synthetase, the “effectiveness, fold versus AMPCPP” value was “about 1000 fold”; the “inhibition constant, fold less than the Km of ATP” value is on record as 60 fold; the “substrate and inhibitor of SAM synthetase” value is “both a substrate for SAM synthetase and a potent inhibitor”.

On to `OC[C@H]1O[C@@H](n2cnc3c2N=CNC[C@H]3O)[C@H](O)[C@@H]1O` [Coformycin], for which the ADA inhibition entry with adenosine deaminase was “potent inhibitors of ADA”.

On to `C[C@](N)(CCCN)C(=O)O` [α-methylornithine], for which, in the data set on Dictyostelium discoideum, the “growth of D. discoideum” value is given as “arrested in four hours”.

For the compound `CCC[C@@H]1C[C@@H](C(=O)N[C@@H]([C@H]2O[C@H](SC)[C@H](O)[C@@H](O)[C@H]2O)[C@@H](C)O)N(C)C1` [Lincomycin], the MIC50 with Staphylococcus aureus was 1 µg/mL (≈ 2.46 µM); with Ureaplasma urealyticum it was not below 128 µg/mL; with Mycoplasma pneumoniae, 8 µg/mL (≈ 19.7 µM); in the data set on Mycoplasma hominis, 2 µg/mL (≈ 4.92 µM). The MIC90 in the data set with Staphylococcus aureus is 1 µg/mL (≈ 2.46 µM); in the data set on Ureaplasma urealyticum, not below 128 µg/mL; in the data set with Mycoplasma pneumoniae, 32 µg/mL (≈ 78.7 µM); in the data set with Mycoplasma hominis, 4 µg/mL (≈ 9.84 µM). Moreover, the Range in the data set on Staphylococcus aureus is 0.5-512; in the data set on Mycoplasma pneumoniae it was 2-32; in the data set on Mycoplasma hominis, 0.5-16.

In the case of `Nc1ncnc2c1ncn2C[C@H](O)[C@H](O)C(=O)O` [L-eritadenine], the “inactivation of SAH” value with SAH in hepatocytes is listed as “inactivate SAH in hepatocytes”.

Take `CNc1ncnc2c1ncn2[C@@H]1C[C@H](CO)[C@@H](O)[C@H]1O` [N^6 -methylaristeromycin]: the inhibition with bovine liver SAHH was 22%.

In the case of `Nc1ncnc2c1ncn2[C@@H]1O[C@H](CO)[C@@H](O)[C@H]1O` [adenosine], the “inhibition of E. coli tRNA methylases” value in data set [2] is “inhibitory to tRNA methylases isolated from E. coli”.

Regarding `CN(Cc1cnc2nc(N)nc(N)c2n1)c1ccc(C(=O)N[C@@H](CCC(=O)O)C(=O)O)cc1` [Methotrexate], in data set [8] (cultured cells and patients), the SAH metabolism result is recorded as “affects SAH metabolism”. The methylation reactions entry in data set [8] (low concentrations, in vitro) is recorded as “interfere with specific methylation reactions”. Further, the inhibition entry in data set [3] is on record as “potently inhibited”.

`N#Cc1cn([C@@H]2O[C@H](CO)[C@@H](O)[C@H]2O)c2ncnc(N)c12` [toyocamycin]: in data set [7], the “formation of mature rRNA” value is “inhibit the formation of mature 28S and 18”. For the same compound, the “maturation of rRNA” value in the data set on rRNA of S. cerevisiae was “inhibit the maturation of rRNA”.
